Read-outs that look alike come from different tables or passages of the source. Values belong to the compound of their own block, whether it stands above or below them.
Columns and labels:
[1] = system: Kochia (Kochia scoparia); experiment: Test A postemergence; assay type: in vivo; details: Bassia scoparia, post-emergence, 240 h; for pest or weed control at 125 g/ha: 125 g ai/ha; for pest or weed control at 500 g/ha: 500 g ai/ha
Method in brief: (§1)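 Visual injury, scored on a 0–100 scale relative to untreated controls, was recorded about 10 d after application. Treatments were a preemergence soil spray over planted seeds or a postemergence spray on plants at the one- to two-leaf stage, 2 to 10 cm tall, all in loam soil–sand blend in the greenhouse.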

[2] = system: blackgrass (Alopecurus myosuroides); experiment: Test A postemergence; assay type: in vivo; details: Alopecurus myosuroides, post-emergence, 240 h; for pest or weed control at 125 g/ha: 125 g ai/ha; for pest or weed control at 500 g/ha: 500 g ai/ha
Method in brief: as §1

[3] = system: corn (Zea mays); experiment: Test A postemergence; assay type: in vivo; details: Zea mays, post-emergence, 240 h; for Corn plant response rating (crop injury, 0 = no effect, 100 = complete kill) at 125 g/ha / plant injury at 125 g/ha: 125 g ai/ha; for plant injury at 125 g/ha: read-out: Corn plant response rating (0 to 100 scale); for Corn plant response rating (crop injury, 0 = no effect, 100 = complete kill) at 500 g/ha: visual injury, approx. 10 d
Method in brief: as §1

[4] = system: pigweed (Amaranthus retroflexus); experiment: Test A postemergence; assay type: in vivo; details: Amaranthus retroflexus, post-emergence, 240 h; for pest or weed control at 125 g/ha: 125 g ai/ha; for pest or weed control at 500 g/ha: 500 g ai/ha
Method in brief: as §1

[5] = system: ragweed (common ragweed, Ambrosia elatior); experiment: Test A postemergence; assay type: in vivo; details: Ambrosia artemisiifolia, post-emergence, 240 h; for pest or weed control at 125 g/ha: 125 g ai/ha; for pest or weed control at 500 g/ha: 500 g ai/ha
Method in brief: as §1

[6] = system: ryegrass, Italian (Italian ryegrass, Lolium multiflorum); experiment: Test A postemergence; assay type: in vivo; details: Lolium multiflorum, post-emergence, 240 h; for pest or weed control at 125 g/ha: 125 g ai/ha; for pest or weed control at 500 g/ha: 500 g ai/ha
Method in brief: as §1

[7] = Postemergence, visual injury, 0 to 100 scale (0 no effect, 100 complete control), approx. 10 d, read-out: Plant response rating, Kochia
[8] = Postemergence, visual injury, 0 to 100 scale (0 no effect, 100 complete control), approx. 10 d, read-out: Plant response rating, Blackgrass
[9] = Postemergence, 500 g ai/ha, 0 to 100 scale (0 no effect, 100 complete control)
[10] = Postemergence, visual injury, 0 to 100 scale (0 no effect, 100 complete control), approx. 10 d, read-out: Plant response rating, Pigweed
[11] = Postemergence, visual injury, 0 to 100 scale (0 no effect, 100 complete control), approx. 10 d, read-out: Plant response rating, Ragweed
[12] = Postemergence, visual injury, 0 to 100 scale (0 no effect, 100 complete control), approx. 10 d, read-out: Plant response rating, Ryegrass, Italian
[13] = Postemergence, visual injury after approx. 10 d, 0 to 100 scale, 0 no effect, 100 complete control, read-out: Plant response rating, Kochia
[14] = Postemergence, visual injury after approx. 10 d, 0 to 100 scale, 0 no effect, 100 complete control, read-out: Plant response rating, Blackgrass
[15] = Postemergence, visual injury after approx. 10 d, 0 to 100 scale, 0 no effect, 100 complete control
[16] = Postemergence, visual injury after approx. 10 d, 0 to 100 scale, 0 no effect, 100 complete control, read-out: Plant response rating, Pigweed
[17] = Postemergence, visual injury after approx. 10 d, 0 to 100 scale, 0 no effect, 100 complete control, read-out: Plant response rating, Ragweed
[18] = Postemergence, visual injury after approx. 10 d, 0 to 100 scale, 0 no effect, 100 complete control, read-out: Plant response rating, Ryegrass, Italian

SMILES: C/C=C/C1CNC(=O)C1C(=O)Nc1cccc(F)c1F (centres unmarked) [Compound 793]
pest or weed control at 125 g/ha ([1]; postemergence, visual injury after approximately 10 d, 0 to 100 scale (0 no effect, 100 complete control), read-out: Plant response rating, Kochia): 0% | pest or weed control at 31 g/ha ([1]; Postemergence, 31 g ai/ha, visual injury after approx. 10 d, 0 to 100 scale, 0 no effect, 100 complete control, read-out: Plant response rating, Kochia): 0% | pest or weed control at 125 g/ha ([2]; postemergence, visual injury after approximately 10 d, 0 to 100 scale (0 no effect, 100 complete control), read-out: Plant response rating, Blackgrass): 0% | pest or weed control at 31 g/ha ([2]; Postemergence, 31 g ai/ha, visual injury after approx. 10 d, 0 to 100 scale, 0 no effect, 100 complete control, read-out: Plant response rating, Blackgrass): 0% | Corn plant response rating (crop injury, 0 = no effect, 100 = complete kill) at 125 g/ha ([3]; postemergence, visual injury after approximately 10 d, 0 to 100 scale (0 no effect, 100 complete control)): 0% | Corn plant response rating (crop injury, 0 = no effect, 100 = complete kill) at 31 g/ha ([3]; Postemergence, 31 g ai/ha, visual injury after approx. 10 d, 0 to 100 scale, 0 no effect, 100 complete control): 0% | pest or weed control at 125 g/ha ([4]; postemergence, visual injury after approximately 10 d, 0 to 100 scale (0 no effect, 100 complete control), read-out: Plant response rating, Pigweed): 0% | pest or weed control at 31 g/ha ([4]; Postemergence, 31 g ai/ha, visual injury after approx. 10 d, 0 to 100 scale, 0 no effect, 100 complete control, read-out: Plant response rating, Pigweed): 0% | pest or weed control at 125 g/ha ([5]; postemergence, visual injury after approximately 10 d, 0 to 100 scale (0 no effect, 100 complete control), read-out: Plant response rating, Ragweed): 0% | pest or weed control at 31 g/ha ([5]; Postemergence, 31 g ai/ha, visual injury after approx. 10 d, 0 to 100 scale, 0 no effect, 100 complete control, read-out: Plant response rating, Ragweed): 0% | pest or weed control at 125 g/ha ([6]; postemergence, visual injury after approximately 10 d, 0 to 100 scale (0 no effect, 100 complete control), read-out: Plant response rating, Ryegrass, Italian): 0% | pest or weed control at 31 g/ha ([6]; Postemergence, 31 g ai/ha, visual injury after approx. 10 d, 0 to 100 scale, 0 no effect, 100 complete control, read-out: Plant response rating, Ryegrass, Italian): 0% | melting point: 151 to 155 °C

SMILES: CN1C[C@H](c2ccc(C(F)(F)F)cc2)[C@@H](C(=O)Nc2cccc(Cl)c2F)C1=O [Compound 1238]
pest or weed control at 125 g/ha ([1]; postemergence, visual injury vs untreated controls after approx. 10 d, 0 = no effect, 100 = complete control, read-out: Kochia plant response rating (0 to 100 scale)): 30% | pest or weed control at 500 g/ha ([1]; postemergence, 0 to 100 scale, 0 is no effect, 100 is complete control, read-out: Kochia plant response rating): 50% | pest or weed control at 125 g/ha ([2]; postemergence, visual injury vs untreated controls after approx. 10 d, 0 = no effect, 100 = complete control, read-out: Blackgrass plant response rating (0 to 100 scale)): 30% | pest or weed control at 500 g/ha ([2]; postemergence, 0 to 100 scale, 0 is no effect, 100 is complete control, read-out: Blackgrass plant response rating): 50% | plant injury at 125 g/ha ([3]; postemergence, visual injury vs untreated controls after approx. 10 d, 0 = no effect, 100 = complete control): 20% | plant injury at 500 g/ha ([3]; 500 g ai/ha, postemergence, 0 to 100 scale, 0 is no effect, 100 is complete control, read-out: Corn plant response rating): 40% | pest or weed control at 125 g/ha ([4]; postemergence, visual injury vs untreated controls after approx. 10 d, 0 = no effect, 100 = complete control, read-out: Pigweed plant response rating (0 to 100 scale)): 0% | pest or weed control at 500 g/ha ([4]; postemergence, 0 to 100 scale, 0 is no effect, 100 is complete control, read-out: Pigweed plant response rating): 30% | pest or weed control at 125 g/ha ([5]; postemergence, visual injury vs untreated controls after approx. 10 d, 0 = no effect, 100 = complete control, read-out: Ragweed plant response rating (0 to 100 scale)): 0% | pest or weed control at 500 g/ha ([5]; postemergence, 0 to 100 scale, 0 is no effect, 100 is complete control, read-out: Ragweed plant response rating): 20% | pest or weed control at 125 g/ha ([6]; postemergence, visual injury vs untreated controls after approx. 10 d, 0 = no effect, 100 = complete control, read-out: Ryegrass, Italian plant response rating (0 to 100 scale)): 20% | pest or weed control at 500 g/ha ([6]; postemergence, 0 to 100 scale, 0 is no effect, 100 is complete control, read-out: Ryegrass, Italian plant response rating): 60% | melting point: 138 to 141 °C

SMILES: Cc1c(F)cccc1NC(=O)[C@H]1C(=O)N(C)C[C@@H]1c1ccc(C(F)(F)F)cc1 [Compound 1386]
pest or weed control at 125 g/ha [1, 13]: 70% | pest or weed control at 500 g/ha [1, 7]: 70% | pest or weed control at 125 g/ha [2, 14]: 70% | pest or weed control at 500 g/ha [2, 8]: 80% | Corn plant response rating (crop injury, 0 = no effect, 100 = complete kill) at 125 g/ha [3, 15]: 70% | Corn plant response rating (crop injury, 0 = no effect, 100 = complete kill) at 500 g/ha [3, 9]: 80% | pest or weed control at 125 g/ha [4, 16]: 40% | pest or weed control at 500 g/ha [4, 10]: 70% | pest or weed control at 125 g/ha [5, 17]: 20% | pest or weed control at 500 g/ha [5, 11]: 50% | pest or weed control at 125 g/ha [6, 18]: 40% | pest or weed control at 500 g/ha [6, 12]: 60% | melting point: 156 to 160 °C

Continued, in another order:

melting point: 170 to 173 °C
SMILES: O=C1NC[C@H](c2cnc(C(F)(F)F)nc2)[C@H]1C(=O)Nc1cccc(F)c1F [Compound 1382]
pest or weed control at 125 g/ha ([1]; Postemergence, visual rating about 10 d after treatment, read-out: Kochia plant response rating (0 to 100 scale)): 0% | pest or weed control at 500 g/ha [1, 7]: 0% | pest or weed control at 125 g/ha ([2]; Postemergence, visual rating about 10 d after treatment, read-out: Blackgrass plant response rating (0 to 100 scale)): 0% | pest or weed control at 500 g/ha [2, 8]: 0% | plant injury at 125 g/ha ([3]; Postemergence, visual rating about 10 d after treatment): 0% | Corn plant response rating (crop injury, 0 = no effect, 100 = complete kill) at 500 g/ha [3, 9]: 0% | pest or weed control at 125 g/ha ([4]; Postemergence, visual rating about 10 d after treatment, read-out: Pigweed plant response rating (0 to 100 scale)): 0% | pest or weed control at 500 g/ha [4, 10]: 0% | pest or weed control at 125 g/ha ([5]; Postemergence, visual rating about 10 d after treatment, read-out: Ragweed plant response rating (0 to 100 scale)): 0% | pest or weed control at 500 g/ha [5, 11]: 0% | pest or weed control at 125 g/ha ([6]; Postemergence, visual rating about 10 d after treatment, read-out: Ryegrass, Italian plant response rating (0 to 100 scale)): 0% | pest or weed control at 500 g/ha [6, 12]: 0%

melting point: 154 to 158 °C
SMILES: O=C1NC[C@H](c2nccc(C(F)(F)F)n2)[C@H]1C(=O)Nc1cccc(F)c1F [Compound 1392]
pest or weed control at 125 g/ha [1, 13]: 0% | pest or weed control at 500 g/ha [1, 7]: 0% | pest or weed control at 125 g/ha [2, 14]: 0% | pest or weed control at 500 g/ha [2, 8]: 0% | Corn plant response rating (crop injury, 0 = no effect, 100 = complete kill) at 125 g/ha [3, 15]: 0% | Corn plant response rating (crop injury, 0 = no effect, 100 = complete kill) at 500 g/ha [3, 9]: 20% | pest or weed control at 125 g/ha [4, 16]: 0% | pest or weed control at 500 g/ha [4, 10]: 0% | pest or weed control at 125 g/ha [5, 17]: 0% | pest or weed control at 500 g/ha [5, 11]: 0% | pest or weed control at 125 g/ha [6, 18]: 0% | pest or weed control at 500 g/ha [6, 12]: 0%

— US12077503B2, “Substituted cyclic amides and their use as herbicides” (FMC CORPORATION, priority 2015, dated 2024)
